# Patent publication US10344025B2, “GLS1 inhibitors for treating disease” (Board of Regents, The University of Texas System, priority 2014, dated 2019)
# Tested on: A549 cells
# Experiment: Proliferation Assay (A549 viability, Cell Titer Fluor, 72 hours)
# Assay type: cell-based
# Conditions: Homo sapiens, A549, 72 h
# Procedure: A549 cells were routinely maintained in RPMI 1640 media (Gibco catalog number 11875-093) supplemented with 10% dialyzed fetal bovine serum using a humidified incubator (37° C., 5% CO2 and ambient O2). In preparation for the viability assay, cells were inoculated into 384-well black CulturPlates (Perkin Elmer) at a density of 1000 cells/well in a volume of 40 uL. Following a 24-hour incubation at 37° C., 5% CO2 and ambient O2, cells were treated with compound (10 uL) in a final DMSO concentration of 0.5% (v/v). The microplates were then incubated for 72 hours (37° C., 5% CO2 and ambient O2). Cell Titer Fluor (Promega) was subsequently added (10 uL of 6× reagent) and mixed for 15 minutes at room temperature. The plates were then incubated for 30 minutes (37° C., 5% CO2 and ambient O2) and fluorescence was subsequently read on the Perkin Elmer Envision plate reader. IC50 values were calculated using a four-parameter logistic curve fit.
# Non-limiting examples include the following compounds and pharmaceutically acceptable salts thereof. […] “ND” indicates no data.
row,Compound,EC50 [nM]
1,"O=C(Cc1ccccc1)Nc1ccc(CCCCn2cc(C(=O)NCc3ccccc3)nn2)nn1 [Example 5, N-Benzyl-1-(4-(6-(2-phenylacetamido)pyridazin-3-yl)butyl)-1H-1,2,3-triazole-4-carboxamide]",< 100
2,"O=C(NCc1ccccc1)c1cn(CCCCc2nnc(C(=O)NCc3cccc(OC(F)(F)F)c3)s2)nn1 [Example 39, 5-{4-[4-(benzylcarbamoyl)-1H-1,2,3-triazol-1-yl]butyl}-N-{[3-(trifluoromethoxy)phenyl]methyl}-1,3,4-thiadiazole-2-carboxamide]",100 to 500
3,"CC(C)NC(=O)c1nnc(CCCCn2cc(C(=O)NCc3cccc(OC(F)(F)F)c3)nn2)s1 [Example 43, N-(propan-2-yl)-5-{4-[4-({[3-(trifluoromethoxy)phenyl]methyl}carbamoyl)-1H-1,2,3-triazol-1-yl]butyl}-1,3,4-thiadiazole-2-carboxamide]",100 to 500
4,"CC(C)CNC(=O)c1nnc(CCCCn2cc(C(=O)NCc3cccc(OC(F)(F)F)c3)nn2)s1 [Example 44, N-(2-methylpropyl)-5-{4-[4-({[3-(trifluoromethoxy)phenyl]methyl}carbamoyl)-1H-1,2,3-triazol-1-yl]butyl}-1,3,4-thiadiazole-2-carboxamide]",100 to 500
5,"O=C(NCc1cc(C2CC2)ccn1)c1cn(CCC(F)Cn2cc(C(=O)NCc3cccc(C4CC4)c3)nn2)nn1 (centres unmarked) [Example 134, 1-[4-(4-{[(3-cyclopropylphenyl)methyl]carbamoyl}-1H-1,2,3-triazol-1-yl)-3-fluorobutyl]-N-[(4-cyclopropylpyridin-2-yl)methyl]-1H-1,2,3-triazole-4-carboxamide]",< 100
6,"O=C(Cc1ccccn1)Nc1ccc(CCCCn2cc(C(=O)NCc3cccc(OC(F)(F)F)c3)nn2)nn1 [Example 169, 1-(4-{6-[2-(pyridin-2-yl)acetamido]pyridazin-3-yl}butyl)-N-{[3-(trifluoromethoxy)phenyl]methyl}-1H-1,2,3-triazole-4-carboxamide]",< 100
7,"CNC(=O)c1cn(CCCCc2ccc(NC(=O)Cc3cncc(OC4CC(F)(F)C4)c3)nn2)nn1 [Example 202, 1-(4-(6-(2-(5-(3,3-difluorocyclobutoxy)pyridin-3-yl)acetamido)pyridazin-3-yl)butyl)-N-methyl-1H-1,2,3-triazole-4-carboxamide]",100 to 500
8,"O=C(Cc1ccccn1)Nc1ccc(CCCCn2cc(C(=O)NCc3cc(C(F)(F)F)ccn3)nn2)nn1 [Example 203, 1-(4-(6-(2-(pyridin-2-yl)acetamido)pyridazin-3-yl)butyl)-N-((4-(trifluoromethyl)pyridin-2-yl)methyl)-1H-1,2,3-triazole-4-carboxamide]",< 100
9,"COc1cncc(CNC(=O)c2cn(CC(F)CCc3nnc(NC(=O)Cc4cccc(OC(F)(F)F)c4)s3)nn2)c1 (centres unmarked) [Example 222, 1-(2-fluoro-4-(5-(2-(3-(trifluoromethoxy)phenyl)acetamido)-1,3,4-thiadiazol-2-yl)butyl)-N-((5-methoxypyridin-3-yl)methyl)-1H-1,2,3-triazole-4-carboxamide]",< 100
10,"O=C(Cc1cncc(OC2CC(F)(F)C2)c1)Nc1ccc(CCCCn2cc(C(=O)NCc3cc(C(F)(F)F)ccn3)nn2)nn1 [Example 230, 1-(4-(6-(2-(5-(3,3-difluorocyclobutoxy)pyridin-3-yl)acetamido)pyridazin-3-yl)butyl)-N-((4-(trifluoromethyl)pyridin-2-yl)methyl)-1H-1,2,3-triazole-4-carboxamide]",< 100
11,"O=C(Cc1cncc(OC2CC(F)(F)C2)c1)Nc1ccc(CCCCn2cc(C(=O)NCc3ccccn3)nn2)nn1 [Example 231, 1-(4-(6-(2-(5-(3,3-difluorocyclobutoxy)pyridin-3-yl)acetamido)pyridazin-3-yl)butyl)-N-(pyridin-2-ylmethyl)-1H-1,2,3-triazole-4-carboxamide]",< 100
12,"CNC(=O)c1cn(CC(F)CCc2ccc(NC(=O)Cc3cc(-c4cccc(OC(F)(F)F)c4)ccn3)nn2)nn1 (centres unmarked) [Example 242, 1-(2-fluoro-4-(6-(2-(4-(3-(trifluoromethoxy)phenyl)pyridin-2-yl)acetamido)pyridazin-3-yl)butyl)-N-methyl-1H-1,2,3-triazole-4-carboxamide]",< 100
13,"CNC(=O)c1cn(CC(F)CCc2ccc(NC(=O)Cc3cc(C(F)(F)F)ccn3)nn2)nn1 (centres unmarked) [Example 248, 1-(2-fluoro-4-(6-(2-(4-(trifluoromethyl)pyridin-2-yl)acetamido)pyridazin-3-yl)butyl)-N-methyl-1H-1,2,3-triazole-4-carboxamide]",< 100
14,"CNC(=O)c1cn(CC(F)CCc2ccc(NC(=O)Cc3cc(OC4CC(F)(F)C4)ccn3)nn2)nn1 (centres unmarked) [Example 252, 1-(4-(6-(2-(4-(3,3-difluorocyclobutoxy)pyridin-2-yl)acetamido)pyridazin-3-yl)-2-fluorobutyl)-N-methyl-1H-1,2,3-triazole-4-carboxamide]",< 100
15,"CNC(=O)c1cn(C[C@H](F)CCc2ccc(NC(=O)Cc3ccccn3)nn2)nn1 [Example 254, (R)-1-(2-fluoro-4-(6-(2-(pyridin-2-yl)acetamido)pyridazin-3-yl)butyl)-N-methyl-1H-1,2,3-triazole-4-carboxamide]",100 to 500
16,"CNC(=O)c1cn(C[C@H](F)CCc2ccc(NC(=O)Cc3cc(-c4cccc(OC(F)(F)F)c4)ccn3)nn2)nn1 [Example 255, (R)-1-(2-fluoro-4-(6-(2-(4-(3-(trifluoromethoxy)phenyl)pyridin-2-yl)acetamido)pyridazin-3-yl)butyl)-N-methyl-1H-1,2,3-triazole-4-carboxamide]",< 100
17,"CNC(=O)c1cn(C[C@@H](F)CCc2ccc(NC(=O)Cc3ccccn3)nn2)nn1 [Example 256, (S)-1-(2-fluoro-4-(6-(2-(pyridin-2-yl)acetamido)pyridazin-3-yl)butyl)-N-methyl-1H-1,2,3-triazole-4-carboxamide]",100 to 500
18,"CNC(=O)c1cn(C[C@@H](F)CCc2ccc(NC(=O)Cc3cc(-c4cccc(OC(F)(F)F)c4)ccn3)nn2)nn1 [Example 257, (S)-1-(2-fluoro-4-(6-(2-(4-(3-(trifluoromethoxy)phenyl)pyridin-2-yl)acetamido)pyridazin-3-yl)butyl)-N-methyl-1H-1,2,3-triazole-4-carboxamide]",< 100
19,"CNC(=O)c1cn(CCCCc2ccc(NC(=O)Cc3cc(OC4CC(F)(F)C4)ccn3)nn2)nn1 [Example 261, 1-(4-(6-(2-(4-(3,3-difluorocyclobutoxy)pyridin-2-yl)acetamido)pyridazin-3-yl)butyl)-N-methyl-1H-1,2,3-triazole-4-carboxamide]",< 100
20,"CNC(=O)c1cn(CC(F)CCc2ccc(NC(=O)Cc3cc(C(F)(F)F)cc(C)n3)nn2)nn1 (centres unmarked) [Example 264, 1-(2-fluoro-4-(6-(2-(6-methyl-4-(trifluoromethyl)pyridin-2-yl)acetamido)pyridazin-3-yl)butyl)-N-methyl-1H-1,2,3-triazole-4-carboxamide]",< 100

# Continued, values first:
row,EC50 [nM],Compound
1,100 to 500,"CNC(=O)c1cn(CCCCc2ccc(NC(=O)Cc3cccc(OC(F)(F)F)c3)nn2)nn1 [Example 157, N-methyl-1-(4-(6-(2-(3-(trifluoromethoxy)phenyl)acetamido)pyridazin-3-yl)butyl)-1H-1,2,3-triazole-4-carboxamide]"
2,100 to 500,"CNC(=O)c1cn(CCCCc2ccc(NC(=O)Cc3ccccn3)nn2)nn1 [Example 167, N-methyl-1-(4-{6-[2-(pyridin-2-yl)acetamido]pyridazin-3-yl}butyl)-1H-1,2,3-triazole-4-carboxamide]"
3,100 to 500,"CNC(=O)c1cn(CCCCc2ccc(NC(=O)Cc3cc(C4CC4)ccn3)nn2)nn1 [Example 190, 1-(4-{6-[2-(4-cyclopropylpyridin-2-yl)acetamido]pyridazin-3-yl}butyl)-N-methyl-1H-1,2,3-triazole-4-carboxamide]"
4,100 to 500,"CNC(=O)c1cn(CCCCc2ccc(NC(=O)Cc3cc(Cl)ccn3)nn2)nn1 [Example 191, 1-(4-{6-[2-(4-chloropyridin-2-yl)acetamido]pyridazin-3-yl}butyl)-N-methyl-1H-1,2,3-triazole-4-carboxamide]"
5,< 100,"CNC(=O)c1cn(CCCCc2ccc(NC(=O)Cc3cc(-c4cccc(OC(F)(F)F)c4)ccn3)nn2)nn1 [Example 192, N-methyl-1-(4-(6-(2-(4-(3-(trifluoromethoxy)phenyl)pyridin-2-yl)acetamido)pyridazin-3-yl)butyl)-1H-1,2,3-triazole-4-carboxamide]"
6,100 to 500,"CNC(=O)c1cn(CCCCc2ccc(NC(=O)Cc3cc(Br)ccn3)nn2)nn1 [Example 200, 1-(4-(6-(2-(4-bromopyridin-2-yl)acetamido)pyridazin-3-yl)butyl)-N-methyl-1H-1,2,3-triazole-4-carboxamide]"
7,100 to 500,"CNC(=O)c1cn(CCCCc2ccc(NC(=O)Cc3cc(C(F)(F)F)ccn3)nn2)nn1 [Example 210, N-methyl-1-(4-(6-(2-(4-(trifluoromethyl)pyridin-2-yl)acetamido)pyridazin-3-yl)butyl)-1H-1,2,3-triazole-4-carboxamide]"
8,100 to 500,"CNC(=O)c1cn(CCCCc2ccc(NC(=O)Cc3cc(OCC(F)(F)F)ccn3)nn2)nn1 [Example 225, N-methyl-1-(4-(6-(2-(4-(2,2,2-trifluoroethoxy)pyridin-2-yl)acetamido)pyridazin-3-yl)butyl)-1H-1,2,3-triazole-4-carboxamide]"
9,< 100,"CNC(=O)c1cn(C[C@@H](F)CCc2ccc(NC(=O)Cc3cc(C(F)(F)F)ccn3)nn2)nn1 [Example 260, (S)-1-(2-fluoro-4-(6-(2-(4-(trifluoromethyl)pyridin-2-yl)acetamido)pyridazin-3-yl)butyl)-N-methyl-1H-1,2,3-triazole-4-carboxamide]"
